Data published in PubChem BioAssay (NCI).
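Method: 48-hour compound exposure of cells in 96-well plates, five concentrations, linear interpolation of endpoints. TGI: total growth inhibition.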

What was measured:
Test in all cases: NCI anticancer screen, dose series, 48 h
BT-549 breast = tested on: BT-549 breast
CAKI-1 renal = tested on: CAKI-1 renal
DU-145 prostate = tested on: DU-145 prostate
HT29 colon = tested on: HT29 colon
IGROV1 ovarian = tested on: IGROV1 ovarian
KM12 colon = tested on: KM12 colon
LOX IMVI melanoma = tested on: LOX IMVI melanoma
M14 melanoma = tested on: M14 melanoma
MDA-MB-231 breast = tested on: MDA-MB-231 breast
NCI/ADR-RES ovarian = tested on: NCI/ADR-RES ovarian
OVCAR-3 ovarian = tested on: OVCAR-3 ovarian
OVCAR-4 ovarian = tested on: OVCAR-4 ovarian
RPMI-8226 leukemia = tested on: RPMI-8226 leukemia
SF-268 CNS = tested on: SF-268 CNS
SK-MEL-2 melanoma = tested on: SK-MEL-2 melanoma
SK-MEL-28 melanoma = tested on: SK-MEL-28 melanoma
SN12C renal = tested on: SN12C renal
TK-10 renal = tested on: TK-10 renal
UACC-257 melanoma = tested on: UACC-257 melanoma
UO-31 renal = tested on: UO-31 renal

| SMILES | TGI (BT-549 breast) | TGI (CAKI-1 renal) | TGI (DU-145 prostate) | TGI (HT29 colon) | TGI (IGROV1 ovarian) | TGI (KM12 colon) | TGI (LOX IMVI melanoma) | TGI (M14 melanoma) | TGI (MDA-MB-231 breast) | TGI (NCI/ADR-RES ovarian) | TGI (OVCAR-3 ovarian) | TGI (OVCAR-4 ovarian) | TGI (RPMI-8226 leukemia) | TGI (SF-268 CNS) | TGI (SK-MEL-2 melanoma) | TGI (SK-MEL-28 melanoma) | TGI (SN12C renal) | TGI (TK-10 renal) | TGI (UACC-257 melanoma) | TGI (UO-31 renal) |
| --- | --- | --- | --- | --- | --- | --- | --- | --- | --- | --- | --- | --- | --- | --- | --- | --- | --- | --- | --- | --- |
| CCOC(=O)C(O)(C(=O)OCC)c1cc(C(C)(C)C)c(O)c(C(C)(C)C)c1 | > 100 µM | > 100 µM | > 100 µM | > 100 µM | > 100 µM | > 100 µM | > 100 µM | > 100 µM | > 100 µM | > 100 µM | > 100 µM | > 100 µM | 91.3 µM | > 100 µM | > 100 µM | > 100 µM | > 100 µM | > 100 µM | > 100 µM | > 100 µM |
| CC[C@H](C)C1=C(O)[N@+]2([O-])Oc3ccc(-c4c(O)c(O)c(-c5ccc(O)cc5)c(OC(C)=O)c4OC(C)=O)cc3O[C@]2([C@@H](C)CC)C(=O)N1O | > 50 µM | > 50 µM | > 50 µM | > 50 µM | 28.2 µM | > 50 µM | > 50 µM | > 50 µM | > 50 µM | > 50 µM | > 50 µM | 36.2 µM | 29.9 µM | > 50 µM | > 50 µM | > 50 µM | > 50 µM | > 50 µM | > 50 µM | > 50 µM |
| CCOC(=O)c1cc(C2CCN(c3ccccc3)C2=O)c(C(=O)/C=C(/C)N)[nH]1 (stereo not given) | > 100 µM | 81.6 µM | > 100 µM | 25.6 µM | > 100 µM | > 100 µM | > 100 µM | > 100 µM | > 100 µM | > 100 µM | > 100 µM | > 100 µM | > 100 µM | > 100 µM | > 100 µM | > 100 µM | 63.7 µM | > 100 µM | > 100 µM | > 100 µM |
| CC[P+]1(c2ccccc2)[C@@H](C)CC[C@@H]1C | > 100 µM | > 100 µM | > 100 µM | > 100 µM | > 100 µM | > 100 µM | > 100 µM | > 100 µM | > 100 µM | > 100 µM | > 100 µM | > 100 µM | > 100 µM | > 100 µM | > 100 µM | > 100 µM | > 100 µM | > 100 µM | > 100 µM | > 100 µM |
| CCOC(=O)CN1CC(C2=C(O)CN(CC(=O)OCC)C2=O)=CC1=O | > 100 µM | > 100 µM | > 100 µM | > 100 µM | > 100 µM | > 100 µM | > 100 µM | > 100 µM | > 100 µM | > 100 µM | > 100 µM | > 100 µM | > 100 µM | > 100 µM | > 100 µM | > 100 µM | > 100 µM | > 100 µM | > 100 µM | > 100 µM |
| N#C/C(N)=C(\C#N)N=CNc1ccc(N)cc1 | > 100 µM | > 100 µM | > 100 µM | > 100 µM | > 100 µM | > 100 µM | > 100 µM | > 100 µM | > 100 µM | > 100 µM | > 100 µM | > 100 µM | > 100 µM | > 100 µM | > 100 µM | > 100 µM | > 100 µM | > 100 µM | > 100 µM | > 100 µM |
| COC(=O)[C@@H]1CC(C(CN)c2cn(C(=O)OC(C)(C)C)c3ccccc23)C(=O)N1C(=O)OC(C)(C)C (stereo not given in full) | > 100 µM | 76.3 µM | > 100 µM | 55.2 µM | 58.1 µM | > 100 µM | 30.5 µM | > 100 µM | 58.6 µM | 55.8 µM | 59.8 µM | 66.6 µM | 24.1 µM | > 100 µM | 55.3 µM | 31.4 µM | 32.9 µM | > 100 µM | 32.2 µM | > 100 µM |
| COc1ccc2c3c1OC1C34CCN(C)C(C2)C4=CC(I)C1(OC)OC (stereo not given) | 36.2 µM | 25.6 µM | 22.6 µM | 22 µM | 22.2 µM | 28.3 µM | 23.9 µM | 29.6 µM | 36 µM | > 100 µM | 18.5 µM | 30 µM | 14.2 µM | 42.8 µM | 30.3 µM | 25.9 µM | 18.9 µM | 27.8 µM | 26.9 µM | 28.5 µM |
| c1ccc2c(c1)ccn1ccc3c4ccccc4nc-3c21 | 3.82 µM | 2.09 µM | 1.72 µM | 1.58 µM | 2.8 µM | 1.92 µM | 1.48 µM | 1.51 µM | 2.2 µM | 2.17 µM | 2.92 µM | 1.75 µM | 0.799 µM | 2.29 µM | 2.54 µM | 1.8 µM | 2.1 µM | 4.34 µM | 2.92 µM | 2.24 µM |
| COc1cccc2cc(C(C)=O)c(=O)oc12 | > 100 µM | > 100 µM | > 100 µM | > 100 µM | > 100 µM | > 100 µM | > 100 µM | > 100 µM | > 100 µM | > 100 µM | > 100 µM | > 100 µM | > 100 µM | > 100 µM | > 100 µM | > 100 µM | > 100 µM | > 100 µM | > 100 µM | > 100 µM |
| O=[N+]([O-])/C(C(Cl)=C(Cl)Cl)=C(\N1CCCCC1)n1nnc2ccccc21 | 49.4 µM | > 55.9 µM | 37.7 µM | 39.3 µM | 34.1 µM | > 88 µM | 31.7 µM | 32.5 µM | 34.5 µM | > 81.1 µM | 32.6 µM | > 100 µM | 38.6 µM | 45 µM | 37.7 µM | 48.3 µM | 33.7 µM | 35.5 µM | 37.2 µM | 34.3 µM |
| Cc1ccc2oc3c(c(Br)c(Br)n3C)c(=O)c2c1 | > 100 µM | 63.8 µM | > 100 µM | > 100 µM | > 100 µM | > 100 µM | > 100 µM | > 100 µM | 43.5 µM | 52.5 µM | 46.8 µM | > 100 µM | > 100 µM | > 100 µM | 89 µM | > 100 µM | 47 µM | 38.9 µM | > 100 µM | 27.5 µM |
